Here are results for 2 compounds from patent US8729047B2, “Compositions for inhibiting redox-sensitive GTPases” (Board of Regents, The University of Texas System, priority 2010, dated 2014).

Like-named read-outs stand apart in the source and are kept apart here.

In assay [1] the test system is SUM149 cells. As to the kind of experiment: Matrigel invasion (cell motility) assay. In kind it is cell-based, human. The settings on record: FIG. 14A. The text has this: (§1) FIG. 14. Determination of cell invasiveness in the presence and absence of thiopurines and/or redox agents. […] Western blot analysis representing the total expression of RhoC in these cells also is shown. (B) Experimental procedures for the determination of the time-dependent motility of cells using the QCM Cell Invasion Assay kit in the presence and absence of 6-TG and DETA/NO are described elsewhere herein.
(§2) The top chamber of a Transwell filter (6.5 mm with 8 μm pores, Costar; Corning, N.Y.) was coated with a 10 μL aliquot of 10 mg/mL Matrigel, and the lower chamber of the Transwell was filled with either serum-free or serum-containing media. Sample cells were prepared to resuspend cells in a serum-free medium with 0.1% BSA at a concentration of 4×10^5 cells/mL. […] The Transwell filters were fixed with methanol, stained with haematoxylin and eosin, and cells in the serum-containing samples were counted. The number of cells that had invaded the serum-free, medium-containing lower chambers was used as a control background.

Assay [2] deals with HME-C20S RhoC cells. As to the kind of experiment: Matrigel invasion (cell motility) assay. Conditions: FIG. 14A. In kind it is cell-based, human.
From the text: as §1, §2

The test system of assay [3] is SW480 cells. As to the kind of experiment: QCM Cell Invasion Assay, time-dependent motility. Type of assay: cell-based, human. The settings on record: 6-TG in combination with a NO donor for 3 days; FIG. 14B. As to the method:
(§3) FIG. 14. Determination of cell invasiveness in the presence and absence of thiopurines and/or redox agents.
(§4) The Colorimetric-based QCM Cell Invasion Assay kit (Millipore, Billerica, Mass.) was used for the time-dependent cell migration assay of SUM149, SW480, and HCCLM3 cells. Serum-free sample cells (2×10^5 cells/mL) were prepared as indicated in the section of the matrigel invasion assay. The serum-free sample cells (0.25 mL) were loaded to the rehydrated upper chamber. […] Serum-free or serum-containing media (0.5 mL) was added to the lower chamber. The plate covered was then incubated for one to four days at 37° C. in a 10% CO2 incubator. […] The fraction of cells migrated from the upper chamber to the lower chamber was then measured colorimetrically according to the procedure provided by the manufacture.

The test system of assay [4] is HCCLM3 cells. As to the kind of experiment: QCM Cell Invasion Assay, time-dependent motility. The settings on record: 6-TG in combination with a NO donor for 3 days; FIG. 14B. Type of assay: cell-based, human. As for the experimental part:
as §3, §4

Assay [5] deals with Ras (Homo sapiens, UniProt P01112). As to the kind of experiment: Guanine nucleotide exchange of [3H]GDP-loaded GTPase with 6-TGDP (FIG. 13A). Type of assay: binding. The settings on record: [3H]GDP-loaded GTPase 1 μM, 6-TGDP 0-2000 μM, 1 h, read-out: appKD for 6-TGDP. As for the experimental part:
(§5) FIG. 13. Guanine nucleotide exchange of small GTPases with 6-TGDP. (A) To monitor 6-TGDP-mediated GTPase GDP dissociation, [^3H]GDP-loaded GTPase (1 μM) was incubated with 6-TGDP (0-2000 μM) for 1 h. (B) To monitor GTPase 6-TGDP dissociation by GDP (0-2000 μM) in the presence and absence of dithiothreitol (DTT), 6-TGDP-loaded GTPase (˜1 μM) was treated with .NO2 (˜3 μM) under anaerobic conditions and was incubated with various concentrations of [^3H]GDP (0-2000 μM) in the presence and absence of DTT (10 mM) for 1 h. For all assays, aliquots were withdrawn and spotted onto nitrocellulose filters. The filters were then washed three times with an assay buffer, and radioactivity was determined using a Beckman-Coulter scintillation counter. The resultant radioactivity (dpm) values associated with GTPase-bound [^3H]GDP were converted into the fraction of mol nucleotide per mol total GTPase. The data presented represent mean and standard error values from triplicate measurements. The apparent dissociation constants (appKD values) of GTPase 6-TGDP association ([^3H]GDP dissociation, A); and 6-TGDP dissociation ([3H]GDP association, B) were obtained by fitting the data to a simple dissociation and association, respectively. […]
(§6) A kinetic assay method using radiolabeled GDP ([^3H]GDP) was established. The apparent dissociation constants (^appKD 6-TGDP) of Rho GTPases (including RhoA, Cdc42, and Rac1/2/3) and Ras with 6-TGDP were determined (FIG. 13). […]
(§7) The true dissociation constant (^trueKD 6-TGDP) of Ras, RhoC, RhoA and Rac1 for 6-TGDP was then calculated to be ˜20.7 pM, 212 μM, 208 μM, and 158 μM [6-TGDP] by using a compensation equation, ^trueKD 6-TGDP=^appKD 6-TGDP/(1+[GDP]/^trueKD GDP) (95), in conjunction with the values given [(^appKD 6-TGDP of Ras, RhoC, RhoA, and Rac1=2300, 230, 224, and 245 μM (FIG. 13) and ^trueKD GDP=9 pM, 12 μM, 13 μM and 1.8 μM, respectively. The ^trueKD GDP of Ras, RhoA and Rac1 was determined previously (Lenzen et al. Biochemistry 37, 7420-7430 (1998); Heo et al. Biochemistry 44, 6573-6585 (2005)) and the ^trueKD GDP of RhoC was further determined. […]

The target of assay [6] is T1, RhoA (Homo sapiens, UniProt P61586).
T1 construct: made in house; host or cells: E. coli
The description is as above. Type of assay: binding. As for the experimental part:
as §5, §6, §7

T1 sequence (P61586 whole entry, species assumed): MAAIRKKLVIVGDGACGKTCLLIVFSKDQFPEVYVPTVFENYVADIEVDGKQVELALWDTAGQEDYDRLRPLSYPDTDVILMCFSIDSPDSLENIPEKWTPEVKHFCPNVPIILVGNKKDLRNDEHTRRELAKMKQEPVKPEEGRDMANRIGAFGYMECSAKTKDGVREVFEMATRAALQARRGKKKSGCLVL
Chain of Ras (P01112 whole entry): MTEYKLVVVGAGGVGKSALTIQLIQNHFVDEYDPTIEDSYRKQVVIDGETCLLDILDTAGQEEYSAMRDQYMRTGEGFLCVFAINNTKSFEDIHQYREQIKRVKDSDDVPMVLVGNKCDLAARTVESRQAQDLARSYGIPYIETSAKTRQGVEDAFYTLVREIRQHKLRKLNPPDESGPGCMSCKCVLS

As to `Nc1nc2nc[nH]c2c(=S)[nH]1` [6-TG, 6-thioguanine], the cell motility entry in assay [1] (6-TG 1 μM alone, three or more consecutive days) is “gradual but significant diminution of cell motility”. In assay [1] (6-TG 1 μM with DETA/NO (or GSNO) 10 μM, three days), the invasive cell motility result is given as “complete termination of the invasive cell motility”. The “effect on motility compared with SUM149 and HME-RhoC cells” value in assay [2] (6-TG alone, three days) is reported as “insignificant”. Besides, the “effect on C20S RhoC activity and invasive cell motility” value in assay [2] (6-TG with a NO donor, compared with either alone) is on record as “lack of a significant effect”. For the same compound, the “most of the invasive motility” value in assay [3] and in assay [4] was “terminated” in each case.

Consider `Nc1nc2c(ncn2[C@@H]2O[C@H](COP(=O)(O)OP(=O)(O)O)[C@@H](O)[C@H]2O)c(=S)[nH]1` [6-TGDP, 6-thioguanosine diphosphate], for which the Kd in assay [5] is 2300 µM; in assay [6] ([3H]GDP-loaded GTPase 1 μM, 6-TGDP 0-2000 μM, 1 h, FIG. 13A, read-out: appKD for 6-TGDP) it was 224 µM; in assay [6] (calculated by compensation equation from appKD 6-TGDP and trueKD GDP, read-out: trueKD 6-TGDP), 208 µM.
